Entries after “also recorded” stand apart in the source; their conditions may differ.
What was measured:
[1] = like ursodeoxycholic acid; cited from earlier work
[2] = promptly secreted in the bile mostly as such; cited from earlier work
[3] = higher than OCA; cited from earlier work
healthy subjects = assay: Phase 1 dose-escalation study in healthy subjects
[4] = tested on: mouse model of alcoholic steatohepatitis; assay: Mouse model of alcoholic steatohepatitis (ALD), Lieber-DeCarli ethanol diet, oral dosing Day 1-14; assay type: in vivo; settings: for fibrosis as analyzed by Pico Sirius Red: 30 mpk, no fibrosis at baseline or in the vehicle group; for serum bile acids: versus vehicle treated ALD mice
Source text: The objective of this study was to assess efficacy of the test articles obeticholic acid (OCA), Compound 1 and Compound 2 on liver and intestinal pathology in a mouse model of alcoholic steatohepatitis.
• Species: Mouse • Strain: C57BL/6J (JAX #000664) • Condition: Purpose-bred, naïve • Source: Jackson Laboratories • Number of Females: 138 (119 on study+19 spares) • Target Age at the 10 weeks
Diet: 5CR4 chow until Day −26; Lieber-DeCarli liquid diet Days […] to Day 15. Upon arrival at the Testing Facility, all animals were placed on PMI Nutrition International Certified Rodent Chow No. 5CR4 ad libitum. During the chow diet phase (until Day −26), the diet in meal form may be provided to individual animals as warranted by clinical signs (e.g., broken/damaged incisors or other health changes).
On Day −26, all animals received 50 mL ethanol diet (1% v/v ethanol). The percentage of alcohol in the liquid diet was increased by 1% v/v every day until reaching 5% (v/v) on day −22 and is maintained at 5% v/v until the end of the study.
Dose Route and timing: Oral Gavage (Group 2-7) Once Daily (Day 1-14). The first day of dosing was designated as Day 1. The dose formulations were stirred continuously during dosing. The doses were given using a syringe with attached gavage cannula.
Terminal plasma and tissue samples were gathered. Plasma was analyzed for TG, TC, ALT, AST, ALP, FGF15 (LCMS), TBIL, and endotoxin.
Frozen liver samples from main study were analyzed in duplicates for the estimation of liver lipids including triglycerides and cholesterol. Liver samples were kept on dry ice until transferred to sample management and stored in a freezer set to maintain […] until analysis.
The liver and small intestine collected from all animals in Groups 1-7 (Main Study) were fixed in 10% neutral buffered formalin for 24-48 hours and transferred to 70% EtOH, stored under ambient conditions and transferred to the histopathology lab at Testing Facility.
Formalin fixed liver tissues were trimmed to slides and stained with H&E and picrosirius red stains. Slides were scored by Charles River board certified veterinarian pathologists.
Formalin fixed small intestine tissues were trimmed to slides and stained with H&E and IHC antibodies (PV-1, ZO-1 and Occludin). Slides were scored by board certified veterinarian pathologists.

male rats = assay: Irwin study (neurologic function); settings: tested up to 180 mg/kg
dogs = assay: Respiratory function safety pharmacology in dogs; settings: single doses up to 300 mg/kg
TGR5 = target: T1, TGR5 (Homo sapiens, UniProt Q8TDU6); settings: cited from earlier work
T1 sequence (Q8TDU6 1-330): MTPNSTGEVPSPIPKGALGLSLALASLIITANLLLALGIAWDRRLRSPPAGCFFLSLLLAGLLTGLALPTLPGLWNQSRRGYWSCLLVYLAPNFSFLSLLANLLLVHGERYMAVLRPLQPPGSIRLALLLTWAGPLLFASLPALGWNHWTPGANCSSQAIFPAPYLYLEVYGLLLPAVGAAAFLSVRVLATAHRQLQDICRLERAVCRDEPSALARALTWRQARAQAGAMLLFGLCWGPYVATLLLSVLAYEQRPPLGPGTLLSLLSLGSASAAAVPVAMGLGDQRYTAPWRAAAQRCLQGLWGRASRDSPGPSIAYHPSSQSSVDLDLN

Row | Compound | critical micellular concentration [1] | hepatic residence time [2] | water solubility relative to obeticholic acid (OCA) [3] [fold] | tolerability (healthy subjects; 5 mg once daily for 14-days) | adverse events (healthy subjects; doses less than 50 mg, single or repeat doses, healthy subjects) | survival (in words) ([4]; 10 mg/kg and 30 mg/kg groups) | steatosis (graded 1-5 by a pathologist) ([4]; 10 mpk group, liver histology) | fibrosis as analyzed by Pico Sirius Red [4] | serum bile acids ([4]; both doses) | neurologic function (male rats) | respiratory function (dogs) | serum bile acids ([4]; high dose) | bilirubin ([4]; terminal plasma) | serum ALP ([4]; terminal plasma) | activity on TGR5 (TGR5) | % Alive ([4]; Dose 30 mkd, PO QD Day 1-14, includes animals for PK) [%]
1 | CC[C@H]1[C@@H](O)[C@@H]2[C@H]([C@@H](O)C[C@]3(C)[C@@H]([C@H](C)CCC(=O)O)CC[C@@H]23)[C@@]2(C)CC[C@@H](O)C[C@@H]12 [Compound 1, 3a,7a,11β-trihydroxy-6α-ethyl-5β-cholan-24-oic acid] | high | very low | 16 | well tolerated | no AEs of clinical concern | improved survival better than OCA; also recorded: greatly improved survival | close to statistical significance | minimal increase in fibrosis | significantly lowered | did not alter neurologic function | not affected |  |  |  |  | 
2 | CC[C@H]1[C@@H](O)C2C3CC[C@H]([C@H](C)CCC(=O)O)[C@@]3(C)C[C@H](O)C2[C@@]2(C)CCCC[C@@H]12 (stereo partly drawn) [Compound 2] |  |  |  |  |  |  |  | minimal increase in fibrosis |  |  |  | significantly lowered | decreased | increased | no activity | 
3 | CC[C@H]1[C@@H](O)[C@@H]2[C@H](CC[C@]3(C)[C@@H]([C@H](C)CCC(=O)O)CC[C@@H]23)[C@@]2(C)CC[C@@H](O)C[C@@H]12 [OCA, obeticholic acid, reference compound] |  |  |  |  |  |  |  | minimal increase in fibrosis |  |  |  |  |  |  |  | 53
